# Measurements from article PMC2854129, “Spadin, a Sortilin-Derived Peptide, Targeting Rodent TREK-1 Channels: A New Concept in the Antidepressant Drug Design” (PLoS Biology, 2010).
# Tests used:
# mice [1] = test: Elevated plus-maze; format: in vivo, mouse; conditions: spadin i.p. 10^−5 M or diazepam i.p. 0.5 mg/kg, 30 min before test, vs saline; n = 10
# From the text: Elevated plus-maze. The apparatus consisted of two open and two enclosed arms of the same size (45x5 cm) with walls 15 cm high. The arms, constructed of black acrylic, radiate from a common central platform (5x5 cm) to form a plus sign. Open arms were arranged opposite to one another, as were closed arms. The maze was elevated to a height of 45 cm above floor level. Each mouse was placed in the central platform facing one of the open arms. The number of entries into the open and closed arms and the time spent on the open and closed arms were recorded during a 5 min test period. Time spent in the unprotected open arms as well as the number of entries in open arms in relation to the total of arm entries are used as experimental indices of anxiety.
# mice [2] = test: Light/dark exploration test; format: in vivo, mouse; conditions: spadin i.p. 10^−5 M or diazepam i.p. 0.5 mg/kg, 30 min before test, vs saline; n = 10
# Experimental: Light/dark exploration. The apparatus consisted of a cage (25X40X20 cm) divided into two compartments by a black partition containing a small opening that allows mouse to move from one compartment to the other. One compartment, comprising […] of the surface area, was made of white plastic and was brightly illuminated. The adjoining smaller compartment was black and dark. Mice were placed in the white compartment and allowed to move freely between the two chambers for 5 minutes. The number of transitions between the two compartments, time spent in the white chamber, and latency to the first transition were recorded. Mice tend to avoid the white compartment. Thus the measures of exploration in this area (time and entrances) were used as experimental indices of anxiety.
# mice [3] = test: Staircase test; format: in vivo, mouse; conditions: spadin i.p. 10^−5 M or diazepam i.p. 0.5 mg/kg, 30 min before test, vs saline; n = 10
# Experimental: Stair case test. The apparatus comprised an enclosed staircase consisted of five identical steps (2.5 cm in height X 11 cm in width X 7.5 cm in length), each made of black plastic. The height of the walls was constant (12.5 cm above the stairs) along the entire length of the staircase. Each mouse was placed individually on the floor of the staircase with its back to the staircase. A step was considered climbed only if the mouse placed all four paws on it. Rearing was recorded when the mouse rose on its hind legs either on the step or against the wall. The number of steps ascended and the number of rearings made in a 3-min period were recorded. Results were expressed as ratio of rearing/step numbers.
# TREK-1 channel = test: Whole-cell patch-clamp, hippocampal CA3 pyramidal neurons in brain slices, wild-type mice; format: cell-based, mouse; conditions: no aa; spadin n = 8, fluoxetine n = 5; mean ± SEM; unpublished data
# TREK-1 [4] = test: Whole-cell patch-clamp, cultured hippocampal pyramidal neurons; format: cell-based, mouse
# Experimental: Cortical neurons were prepared from 14 old mouse embryos, whereas hippocampal neurons were prepared from newborn mice. Briefly, dissected brain areas were dissociated and neurons were plated on polylysine-treated 35 or 60 mm dishes and maintained in culture in Neurobasal medium supplemented with B27, Glutamax, and antibiotics for 2 to 3 wk before to be used for electrophysiological or biochemical experiments.
# Supplementary file pbio.1000355.s004.tif: Figure S4 Effects of spadin on cultured pyramidal neurons from hippocampus. (A) Cultured pyramidal neuron from hippocampus, with on top, the patch-clamp pipette. Neurons were chosen according to their morphology. (B) Current recorded in response to ramps of potential obtained in the various conditions indicated (aa, arachidonic acid: 10 µM; Spadin: 1 µM; Fluoxetine: 20 µM). Neurons were recorded in the whole-cell configuration of the patch-clamp technique. In voltage-clamp, ramps of potential from −90 mV to 70 mV were applied every 10 s. The % variation of the current amplitude was always measured at −50 mV. The currents were recorded in response to such ramps in control conditions and in the presence of a cocktail of potassium blockers suitable to isolate the TREK currents (10 mM tetraethyl ammonium (TEA), 3 mM 4-aminopyridine (4-AP), 50 nM charybdotoxin, 10 µM glibenclamide, 100 nM apamin). […] The blocks were reversible. (C) Time course of spadin and fluoxetine effects. Applications are indicated by the horizontal bars. (2.03 MB TIF) Click here for additional data file.
# mice [5] = test: Forced Swimming Test (FST), mice; format: in vivo, mouse
# Experimental: Porsolt forced swim test (FST). Mice (Janvier, France) were placed individually in cylinders (height: 30 cm, diameter: 15 cm) filled with 12 cm deep water (temperature: 22 ±1°C) for 6 min. The total period of immobility was recorded during the last 4 min.
# mice [6] = test: Tail Suspension Test (TST), mice; format: in vivo, mouse; conditions: 4-d fluoxetine 3 mg/kg, vs saline, p>0.05
# Experimental: Tail suspension test (TST). Mice were suspended by the tail. […] The immobility time was recorded during a 6 min test session.
# mice [7] = test: Novelty Suppressed Feeding test (NSF), mice; format: in vivo, mouse; conditions: 4 d; spadin i.v. 10^−6 M, fluoxetine i.p. 3 mg/kg; vs saline
# Experimental: Novelty–suppressed feeding test (NSF). NSF paradigm is a conflict test that elicits competing motivations: the drive to eat and the fear of venturing into the center of a bright arena. Latency to begin eating is used as an index of anxiety- and depression- like behavior. After 4 day treatment (saline or spadin, i.v.) and 24 hours food-deprivation, mice were presented with a food pellet placed in the center of a brightly plastic box (50 x 50 x 20 cm). Latency to begin eating was measured as previously described.
# mice [8] = conditions: mouse, in vivo, ip
# Experimental: Supplementary file pbio.1000355.s006.tif: Figure S6 Mouse locomotion activity. To determine whether spadin induced a change in locomotor activity, mice (n = 8 per group) were injected with the saline solution or spadin (10^−5M in 100 µl bolus, i.p.) 30 min before starting the test session. Locomotor activity was monitored individually for 24 h using an infrared photobeam activity monitoring system (Imetronic, Pessac, France), which measured consecutive horizontal beam breaks. Testing was in transparent plastic cages (43×2 0×20 cm^3) with fresh bedding in a grid of 8 cm horizontal infrared beams. Locomotor activity was defined as breaking of consecutive photobeams. Mice were given 1 h habituation session before being treated with spadin or saline. Movements were recorded and totalized for each 5 min period during the first hour and then by 10 min time sections for the next 23 h. Six periods were pooled to obtain data for 1 h of time. Different movements were monitored: the coming-and-going between the back and the front of the cage, climbing, and other movements in the back or the front of the cage. Data are the mean value of 8 animals per condition, bars represent SEM. Mice were kept under standard laboratory conditions: 12∶12 light-dark cycle with free access to food and water during the experiment. […] (0.53 MB TIF) Click here for additional data file.
# [9] = tested on: corticosterone (HPA axis); test: Stress-induced serum corticosterone levels; format: in vivo, mouse; conditions: fluoxetine i.p. 3 mg/kg, 30 min after 10 min tube restraint, vs saline; n = 10
# Experimental: Mice were individually housed for at least 12 h before blood sample collection. Serum samples, collected in the morning, were obtained by retroorbital puncture before and 30 min after the end of a 10 min tube restraint. Levels of corticosterone were measured by radioimmunoassay using a commercially available kit (MP Biomedicals).
# [10] = tested on: BrdU-positive cells in mouse hippocampus; test: Hippocampal neurogenesis (BrdU labeling); format: in vivo
# Experimental: Twenty-four hours after the injection of BrdU (120 mg per kg of body weight in a 300 µl bolus), mice were euthanized and transcardially perfused with 4% cold paraformaldehyde. Serial sections of the brains were cut (40 µm) throughout the entire hippocampus on a vibratome (Leica). Every sixth section throughout the hippocampus was processed for BrdU or DCX immunohistochemistry, as previously described. For each immunodetection, slides were first incubated overnight at 4°C with a mouse monoclonal anti-BrdU antibody (1∶200; Becton-Dickinson) or a goat anti-DCX (1∶400; Santa Cruz Laboratories). For chromogenic immunodetection, sections were then incubated for 1 h in biotin-conjugated species-specific secondary antibodies (1∶100; Vector Laboratories) followed by a peroxidase-avidin complex solution according to the manufacturer's protocol. The peroxidase activity of immune complexes was visualized with DAB staining using the VectaStain ABC kit (Vector Laboratories). […] All BrdU-labeled cells in the granular cell layer and SGZ were counted in each section (n = 10 and 5 mice per group) at 400× and 1,000× magnification under a light microscope (Olympus) by an experimenter blinded to the study code. […]
# C13NJ cells = test: C13NJ wound-healing (cell migration) assay; format: cell-based; conditions: 10 nM NT in serum free medium; without spadin, or (spadin line) with 1 µM spadin; unstimulated 4%±1%
# From the text: A cell-free zone was created within a semi-confluent monolayer of microglial culture by scratching cells off with a pipette tip. We analyzed by time-lapse microscopy how cells repopulated the cell-free zone, as already described. Supplementary file pbio.1000355.s001.tif: Figure S1 […] wound-healing assay. A cell-free zone was created within a semi-confluent monolayer with a pipette tip. We analyzed by time-lapse microscopy how cells repopulated the cell-free zone. The 100% of migrating cells was calculated by stimulation of cell migration with 10% of Fetal Calf Serum (FCS). (0.13 MB TIF) Click here for additional data file.
# TREK-1 [11] = target: T1, TREK-1 (Mus musculus, UniProt P97438); test: Competition binding, 125I-spadin, TREK-1 transfected COS-7 cell homogenates; design: expressed in transfected cells; host or cells: COS-7 cells, DEAE-dextran transfection; conditions: competition, 10^−10 to 10^−5M
# T1 sequence (P97438 1-426): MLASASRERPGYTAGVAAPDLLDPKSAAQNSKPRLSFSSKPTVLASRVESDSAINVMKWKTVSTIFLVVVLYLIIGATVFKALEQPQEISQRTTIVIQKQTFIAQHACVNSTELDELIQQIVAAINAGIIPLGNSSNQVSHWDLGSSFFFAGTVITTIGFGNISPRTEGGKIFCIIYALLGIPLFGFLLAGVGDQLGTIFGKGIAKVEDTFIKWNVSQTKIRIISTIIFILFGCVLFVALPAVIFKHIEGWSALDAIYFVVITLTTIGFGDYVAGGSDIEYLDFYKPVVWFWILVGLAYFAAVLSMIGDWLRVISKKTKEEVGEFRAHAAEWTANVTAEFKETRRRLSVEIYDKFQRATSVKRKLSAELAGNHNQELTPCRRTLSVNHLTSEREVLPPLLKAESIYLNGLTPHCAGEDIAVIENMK
# Experimental: For competition experiments, homogenates from TREK-1 transfected COS-7 or C13NJ cells were incubated with 0.2 nM ^125I-spadin or ^125I-NT (200,000 cpm in 250 µl) iodinated and purified as previously described. Incubations were performed in 50 mM Tris-HCl, pH 7.4 containing 0.1% BSA in the presence of increasing concentrations of non-radioactive spadin or NT (10^−10 to 10^−5M). Incubations were terminated by addition of 2 ml of ice-cold binding buffer followed by filtration through cellulose acetate filters (Sartorius, Göttingen, Germany) and washing twice with 2 ml of ice-cold buffer. Radioactivity on filters was counted with a gamma-counter.
molecule,measurement,setting,value
CN1C(=O)CN=C(c2ccccc2)c2cc(Cl)ccc21 [diazepam],time spent in the open arms,mice [1],significantly reduced the time spent into the aversive open arms
same,light/dark transitions,mice [2],significantly induced an increase in the number of light/dark transitions
same,rearing/step numbers ratio,mice [3],decrease of the rearing/step numbers ratio
CNCCC(Oc1ccc(C(F)(F)F)cc1)c1ccccc1 (stereo not shown) [fluoxetine],"inhibition of current recorded in presence of potassium blockers, peptide/drug alone",TREK-1 channel,13.0%±3.8%
same,block of arachidonic acid-evoked current,"TREK-1 [4]; 20 µM fluoxetine, 10 µM aa, at −50 mV",fully blocked
same,reversibility of block,TREK-1 [4]; spadin 1 µM and fluoxetine 20 µM,reversible
same,effect of subchronic treatment,"mice [5]; 4-d fluoxetine 3 mg/kg, FST, vs saline, p>0.05",no effect
same,"reduction of time of immobility, chronic treatment","mice [5]; 15 d, i.v. once a day, spadin 10^−6 M, fluoxetine 1 mg/kg, vs saline p<0.001, n = 8",around 30%
same,effect of subchronic treatment,mice [6],no effect
same,latency to feed,mice [7],no effect
same,locomotor activity,mice [8],Neither spadin nor fluoxetine had any effect on mouse locomotion
same,reduction of stress-induced increase in corticosterone levels,[9],59.1%
same,number of BrdU-positive cells,[10]; 4-d fluoxetine,no effect on neurogenesis
same,number of BrdU-positive cells,"[10]; 15 d treatment, spadin 10^−5 M or fluoxetine, n = 5",significant increase in the number of BrdU-positive cells
neurotensin [NT],"number of cells that migrated, % of migrating cells in presence of 10% FCS",C13NJ cells,35.1%±2.3%
same,displacement of 125I-spadin binding,TREK-1 [11],unable to displace the binding of ^125I-spadin
